This passage reports IC50, inhibition and Shift results from US8569292B2, “Cyclic inhibitors of 11β-hydroxysteroid dehydrogenase 1” (Vitae Pharmaceuticals, Inc., priority 2008, dated 2013).

Each structure is given as a SMILES string. Bounds are passed on as bounds.

In one assay the target is CYP3A4 (Homo sapiens, UniProt P08684). Description: Biological Test Example 6: CYP3A4 inhibition (erythromycin N-demethylation). The format is in vitro ADME.
In the next assay the target is T1, CYP2C9 (Homo sapiens, UniProt P11712).
T1 construct: purchased Invitrogen 2859; host or cells: insect cells infected with baculovirus (microsomes)
T1 sequence (P11712 whole entry): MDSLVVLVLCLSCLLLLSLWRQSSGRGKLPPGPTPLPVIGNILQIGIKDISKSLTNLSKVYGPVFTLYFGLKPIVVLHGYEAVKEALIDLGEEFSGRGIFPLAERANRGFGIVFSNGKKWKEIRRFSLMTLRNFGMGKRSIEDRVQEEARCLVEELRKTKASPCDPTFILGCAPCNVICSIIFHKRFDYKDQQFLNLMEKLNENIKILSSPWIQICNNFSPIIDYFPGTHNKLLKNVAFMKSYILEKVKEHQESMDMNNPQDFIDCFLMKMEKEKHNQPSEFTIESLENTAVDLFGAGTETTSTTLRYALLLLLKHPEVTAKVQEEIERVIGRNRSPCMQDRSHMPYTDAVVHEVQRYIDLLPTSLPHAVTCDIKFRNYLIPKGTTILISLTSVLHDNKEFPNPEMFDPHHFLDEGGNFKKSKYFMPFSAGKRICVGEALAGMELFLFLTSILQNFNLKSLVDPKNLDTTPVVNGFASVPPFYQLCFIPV
Description: Biological Test Example 7: CYP2C9 inhibition (naproxen O-demethylation). The format is in vitro ADME.

The target in the next assay is CYP2C19 (Homo sapiens, UniProt P33261). The assay is described as follows: Biological Test Example 8: CYP2C19 inhibition (diazepam N-demethylation). It counts as in vitro ADME.
Sequence of CYP2C19 (P33261 whole entry): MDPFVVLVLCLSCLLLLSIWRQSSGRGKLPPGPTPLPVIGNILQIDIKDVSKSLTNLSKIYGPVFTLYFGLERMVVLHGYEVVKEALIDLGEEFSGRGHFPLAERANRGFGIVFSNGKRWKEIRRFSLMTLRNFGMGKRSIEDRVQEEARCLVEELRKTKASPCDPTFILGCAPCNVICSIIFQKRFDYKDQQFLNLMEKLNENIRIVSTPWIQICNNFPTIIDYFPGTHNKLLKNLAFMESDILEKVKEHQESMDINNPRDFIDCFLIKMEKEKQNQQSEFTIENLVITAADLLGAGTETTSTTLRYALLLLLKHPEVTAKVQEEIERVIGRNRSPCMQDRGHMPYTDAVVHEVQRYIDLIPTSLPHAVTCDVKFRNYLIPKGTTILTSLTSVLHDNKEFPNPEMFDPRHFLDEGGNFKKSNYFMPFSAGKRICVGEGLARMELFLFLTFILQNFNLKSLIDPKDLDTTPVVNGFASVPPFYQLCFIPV
For assay [1], the target named is T2, 11β-HSD1 (Homo sapiens, UniProt P28845). The assay is described as follows: biochemical. The following applies: for inhibition at 0.1 µM: read-out: Average % inhibition at 100 nM.
T2 sequence (P28845 whole entry): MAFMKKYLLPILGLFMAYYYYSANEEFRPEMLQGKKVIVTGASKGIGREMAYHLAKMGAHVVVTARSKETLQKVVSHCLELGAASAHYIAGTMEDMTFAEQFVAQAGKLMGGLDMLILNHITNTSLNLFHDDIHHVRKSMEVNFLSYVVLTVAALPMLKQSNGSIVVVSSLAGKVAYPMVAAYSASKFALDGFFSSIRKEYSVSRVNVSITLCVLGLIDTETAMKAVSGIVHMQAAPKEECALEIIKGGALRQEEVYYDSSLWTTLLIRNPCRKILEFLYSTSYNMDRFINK
For assay [2], the target named is T2, 11β-HSD1. Description: Biological Test Example 4: microsomal 11β-HSD1 in the presence of 50% human plasma. The following applies: for Shift: IC50 in Test Example 4 divided by IC50 in Test Example 1.
[3] abbreviates: Biological Test Example 1 IC50 (nM).
[4] abbreviates: IC50 Range, Biological Test Example 1.

Sequence of CYP3A4 (P08684 whole entry): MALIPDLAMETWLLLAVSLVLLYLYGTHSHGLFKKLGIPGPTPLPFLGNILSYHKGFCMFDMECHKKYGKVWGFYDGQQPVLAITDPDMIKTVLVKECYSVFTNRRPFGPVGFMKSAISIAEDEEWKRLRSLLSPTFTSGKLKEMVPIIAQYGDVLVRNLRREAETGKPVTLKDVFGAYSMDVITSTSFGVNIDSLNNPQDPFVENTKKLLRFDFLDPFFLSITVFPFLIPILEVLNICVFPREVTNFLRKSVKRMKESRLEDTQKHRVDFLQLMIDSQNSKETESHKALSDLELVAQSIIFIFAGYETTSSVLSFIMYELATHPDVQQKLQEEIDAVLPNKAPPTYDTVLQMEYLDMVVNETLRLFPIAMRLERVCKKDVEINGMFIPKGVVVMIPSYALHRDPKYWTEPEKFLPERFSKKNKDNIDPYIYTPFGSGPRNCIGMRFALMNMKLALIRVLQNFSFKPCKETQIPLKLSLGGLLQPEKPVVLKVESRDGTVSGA

For the molecule `C[C@@H](c1ccc(-c2nc(C(=O)NC3CC3)cs2)cc1)N1CC[C@](CC(C)(C)O)(c2ccccc2)OC1=O` [EXAMPLE 19, N-cyclopropyl-2-(4-((S)-1-((S)-6-(2-hydroxy-2-methylpropyl)-2-oxo-6-phenyl-1,3-oxazinan-3-yl)ethyl)phenyl)thiazole-4-carboxamide], the IC50 against CYP3A4 is 27.1 µM; against CYP2C9 it was 31.7 µM; at CYP2C19, 10.3 µM; on 11β-HSD1 [1] (setting [3]), 1.9 nM; against 11β-HSD1 [1] (setting [4]), under 100 nM; at 11β-HSD1 [2], 0.0198 µM. Also, the inhibition at 0.1 µM at 11β-HSD1 [1] was 94.6%. Further, the Shift at 11β-HSD1 [2] is 10.4.
Consider `C[C@@H](c1ccc(-c2ccc(C#N)cn2)cc1)N1CC[C@](CCCO)(c2ccc(F)cc2)OC1=O` [EXAMPLE 101, 6-(4-((S)-1-((R)-6-(4-fluorophenyl)-6-(3-hydroxypropyl)-2-oxo-1,3-oxazinan-3-yl)ethyl)phenyl)nicotinonitrile], for which the IC50 was over 50 µM against CYP3A4; 9.9 µM against CYP2C9; over 50 µM against CYP2C19; 1.2 nM at 11β-HSD1 [1] (setting [3]); under 100 nM on 11β-HSD1 [1] (setting [4]); 0.0075 µM at 11β-HSD1 [2]. In addition, on 11β-HSD1 [1], the inhibition at 0.1 µM came out at 100%. In addition, the Shift on 11β-HSD1 [2] is given as 6.0.
Regarding `C[C@@H](c1ccc(-c2nc(C(=O)NC(C)(C)C)cs2)cc1)N1CC[C@](CC(C)(C)O)(c2ccccc2)OC1=O` [EXAMPLE 22, N-tert-butyl-2-(4-((S)-1-((S)-6-(2-hydroxy-2-methylpropyl)-2-oxo-6-phenyl-1,3-oxazinan-3-yl)ethyl)phenyl)thiazole-4-carboxamide], the IC50 against CYP3A4 was 5.2 µM; at CYP2C9 it was 4.5 µM; at CYP2C19, 3.6 µM; against 11β-HSD1 [1] (setting [3]), 2.8 nM; at 11β-HSD1 [1] (setting [4]), under 100 nM; at 11β-HSD1 [2] it was 0.0181 µM. For the same molecule, on 11β-HSD1 [1], the inhibition at 0.1 µM was 90%.
In the case of `C[C@@H](c1ccc(-c2ccc(S(C)(=O)=O)nc2)cc1)N1CC[C@](CC(C)(C)O)(c2ccccc2)OC1=O` [EXAMPLE 183, (S)-6-(2-Hydroxy-2-methyl-propyl)-3-{(S)-1-[4-(6-methanesulfonyl-pyridin-3-yl)-phenyl]-ethyl}-6-phenyl-[1,3]oxazinan-2-one], the IC50 on CYP3A4 is over 50 µM; against CYP2C9 it was 45.7 µM; against CYP2C19 it was 47.4 µM; against 11β-HSD1 [1] (setting [3]), 0.93 nM; at 11β-HSD1 [1] (setting [4]), under 100 nM. Also, the inhibition at 0.1 µM at 11β-HSD1 [1] amounted to 96.4%.
Take `C[C@@H](c1ccc(-c2ccc(S(C)(=O)=O)cn2)cc1)N1CC[C@](CC(C)(C)O)(c2ccccc2)OC1=O` [EXAMPLE 186, (S)-6-(2-Hydroxy-2-methyl-propyl)-3-{(S)-1-[4-(5-methanesulfonyl-pyridin-2-yl)-phenyl]-ethyl}-6-phenyl-[1,3]oxazinan-2-one]: the IC50 against CYP3A4 was over 50 µM; on CYP2C9, over 50 µM; on CYP2C19 it was 48.6 µM; on 11β-HSD1 [1] (setting [3]), 0.9 nM; against 11β-HSD1 [1] (setting [4]), under 100 nM. The inhibition at 0.1 µM on 11β-HSD1 [1] was 95.2%.
Take `C[C@@H](c1ccc(-c2cnn(C)c2)cc1)N1CC[C@](CC(C)(C)O)(c2ccccc2)OC1=O` [EXAMPLE 178, (S)-6-(2-Hydroxy-2-methyl-propyl)-3-{(S)-1-[4-(1-methyl-1H-pyrazol-4-yl)-phenyl]-ethyl}-6-phenyl-[1,3]oxazinan-2-one]: the IC50 against CYP3A4 was over 50 µM; on CYP2C9, 21.3 µM; against CYP2C19 it was over 50 µM.
Take `C[C@@H](c1ccc(-c2ccc(C(=O)N(C)C)nc2)cc1)N1CC[C@](CC(C)(C)O)(c2ccccc2)OC1=O` [EXAMPLE 170]: the IC50 was 45.6 µM at CYP3A4, 48.6 µM against CYP2C9 and 39.4 µM on CYP2C19.
